From patent US12370192B2, “Azole-fused pyridazin-3(2H)-one derivatives” (TAKEDA PHARMACEUTICAL COMPANY LIMITED, priority 2019, dated 2025) come the findings set out here.

Structures are written as SMILES.

The target in experiment [1] is T1, human GPR139 receptor (Homo sapiens, UniProt Q6DWJ6).
T1 construct: expressed in transfected cells; host or cells: T-REx-CHO (Thermo Fisher Scientific), doxycycline-induced
T1 sequence (Q6DWJ6 1-353): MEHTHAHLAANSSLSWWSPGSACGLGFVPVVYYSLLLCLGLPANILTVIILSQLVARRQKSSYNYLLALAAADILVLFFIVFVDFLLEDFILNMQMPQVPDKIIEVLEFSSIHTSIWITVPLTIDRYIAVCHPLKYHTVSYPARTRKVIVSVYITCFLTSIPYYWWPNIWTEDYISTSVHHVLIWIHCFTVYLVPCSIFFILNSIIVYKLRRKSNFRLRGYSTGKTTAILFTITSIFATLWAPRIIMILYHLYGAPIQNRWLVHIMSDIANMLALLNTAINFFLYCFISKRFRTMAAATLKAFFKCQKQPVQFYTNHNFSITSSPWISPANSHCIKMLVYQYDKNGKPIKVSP
The experiment is described as follows: Measurement of GPR139 Activation Via Calcium Signaling (FLIPR, T-REx-CHO cells). In kind it is cell-based. The settings on record: T-REx-CHO cells stably expressing human GPR139, 11-point dose response, 10 μM maximum concentration, read-out: GPR139 Potency (pEC50) (converted). Put shortly:
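Calcium flux read by FLIPR for 1 min after adding compounds (11 concentrations, maximum 10 μM) to doxycycline-induced (2 μg/mL, 17 h) T-REx-CHO cells expressing human GPR139. Cells dye-loaded 40 min at 37 °C in HBSS, 1 mM HEPES pH 7.4 with probenecid; activation reported as pEC50 from four-parameter logistic fit.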

Experiment [2] concerns the target T1, human GPR139 receptor. Put plainly: GPR139 Competition Binding (membrane-based, tritium-labeled ligand). The note with it: T-REx-CHO membranes with human GPR139; 6.5 nM tritium-labeled ligand; 11-point curve, 30 μM maximum concentration; read-out: GPR139 Binding Affinity (pKi) (converted). On the procedure: OPR139 Competition Binding
This membrane-based assay measures the ability of compounds to competitively bind GPR139 in stably transfected TREx™-CHO membranes. To prepare the membranes, T-REx™-CHO (Thermo Fisher Scientific®) cells are stably expressed with human GPR139 receptor, whose expression is controlled by a tetracycline-inducible element. The cells are cultured in medium containing F-12K nutrient mixture-Kaighn's modification, 10% tetracycline-free FBS, Blasticidin S HCl (10 μg/mL) and Hygromycin B (200 μg/mL). GPR139 receptor expression is induced for 18 hours with 2 μg/mL doxycycline (Sigma D9891) in growth media. After addition of doxycycline, cells are harvested in PBS and pelleted by centrifugation for 5 minutes at 200×G. Liquid is aspirated off and cells are resuspended in ice cold lysis buffer (20 mM HEPES/5 mM EDTA pH 7.4/1× Roche® protease inhibitor). Samples are vortexed until homogenous and then placed on ice and homogenized using a Dounce homogenizer at 50% power (3 cycles, 10 strokes per cycle). Lysate is centrifuged at 4° C. for 10 minutes in a tabletop Sorvall® centrifuge at 2000×G. The supernatant is recovered and centrifuged in a Sorvall® ultracentrifuge at 35,000 rpm for 30 minutes at 4° C. The supernatant is discarded, and the remaining pellet resuspended in lysis buffer (20 mM HEPES/0.1 mM EGTA/Roche® protease inhibitor). Membrane protein concentration is determined using Thermo Fisher® BCA quantification kit and is aliquoted into microtubes. Tubes are snap frozen in liquid nitrogen and stored at −80° C. Prior to use, the membranes are removed from cold storage, thawed to room temperature, vortexed until homogenous and diluted in assay buffer (20 mM HEPES pH 7.3, 5 mM MgCl2, 1 mM CaCl2), 1× Thermo Scientific® Halt™ protease inhibitor (78429)).
The assay is run in 96-well, polypropylene, v-bottom plates (Greiner Bio-One® 651201). Test compound in DMSO is added to the wells of each plate (11-point dose response curve, 30 μM maximum concentration, 3-fold serial dilution). A fixed amount of tritium-labeled ligand, (S)-2-(2,3-dimethyl-7-oxothieno[2,3-d]pyridazin-6(7H)-yl)-N-(1-(4-methoxyphenyl-2-t)propan-2-yl)acetamide (Quotient Bioresearch) in assay buffer (6.5 nM assay concentration) is added to each well of the assay plate, which is then agitated on a plate shaker for 30 seconds. Next, a fixed amount of membranes in assay buffer (2 μg membranes) is added to each well of the assay plate, which is then spun for 30 seconds at 300 rpm in a tabletop Eppendorf centrifuge, and then incubated at room temperature for 20 minutes. Using a Tomtec harvester, the contents of the assay plate are transferred to Filtermat A (PerkinElmer® No. 1450-421) which prior to use is pre-soaked in 0.5% PEI (Sigma P3143) for 3 hours and dried at room temperature overnight. Following transfer, the Filtermat is washed 5 times with cold wash buffer (20 mM HEPES pH 7.3, 100 mM NaCl). The Filtermat is dried using a microwave oven and placed in a sample bag (PerkinElmer® No. 1450-432) with a scintillator sheet (PerkinElmer® No. 1450-411). The scintillator sheet is melted to the Filtermat using a heat block set to 65° C., placed in a MicroBeta® cartridge and read using a MicroBeta® scintillation counter. Binding curves are generated with a four-parameter logistic equation using GraphPad Prism® 6 and the inhibition constant Ki is reported as pKi.

Take `Cc1nn(C2CC2)c2cnn(CC(=O)N[C@@H](C)c3cccc(F)c3F)c(=O)c12` [Example 30, (S)-2-(1-cyclopropyl-3-methyl-4-oxo-1,4-dihydro-5H-pyrazolo[3,4-d]pyridazin-5-yl)-N-(1-(2,3-difluorophenyl)ethyl)acetamide]: the EC50 at human GPR139 receptor [1] was 72.4 nM. The Ki at human GPR139 receptor [2] is 257 nM.

With `COc1ccc([C@H](C)NC(=O)Cn2ncc3c(c(C)nn3C3CC3)c2=O)cc1C` [Example 31, (S)-2-(1-cyclopropyl-3-methyl-4-oxo-1,4-dihydro-5H-pyrazolo[3,4-d]pyridazin-5-yl)-N-(1-(4-methoxy-3-methylphenyl)ethyl)acetamide], the EC50 at human GPR139 receptor [1] was 57.5 nM. For the same compound, the Ki at human GPR139 receptor [2] is 11700 nM.

As to `Cc1nn(C2CC2)c2cnn(CC(=O)N[C@@H](C)c3ccc(C(F)(F)F)cn3)c(=O)c12` [Example 32], the EC50 at human GPR139 receptor [1] was 617 nM. Besides, at human GPR139 receptor [2], the Ki is 30200 nM.

For the compound `Cc1ccc([C@H](C)NC(=O)Cn2ncc3c(cnn3C)c2=O)cc1` [Example 33, (S)-2-(1-methyl-4-oxo-1,4-dihydro-5H-pyrazolo[3,4-d]pyridazin-5-yl)-N-(1-(p-tolyl)ethyl)acetamide], the EC50 on human GPR139 receptor [1] was 66.1 nM. The Ki on human GPR139 receptor [2] was 5250 nM.

As for `C[C@H](NC(=O)Cn1ncc2c(cnn2C)c1=O)c1ccc(C(F)(F)F)cc1` [Example 34, (S)-2-(1-methyl-4-oxo-1,4-dihydro-5H-pyrazolo[3,4-d]pyridazin-5-yl)-N-(1-(4-(trifluoromethyl)phenyl)ethyl)acetamide], the EC50 at human GPR139 receptor [1] is 70.8 nM. Besides, on human GPR139 receptor [2], the Ki is 6030 nM.

As for `Cc1ccc([C@H](C)NC(=O)Cn2ncc3c(cnn3C)c2=O)c(F)c1` [Example 35, (S)—N-(1-(2-fluoro-4-methylphenyl)ethyl)-2-(1-methyl-4-oxo-1,4-dihydro-5H-pyrazolo[3,4-d]pyridazin-5-yl)acetamide], the EC50 at human GPR139 receptor [1] is 79.4 nM. On human GPR139 receptor [2], the Ki is 1020 nM.

With `Cc1ccc([C@H](C)NC(=O)Cn2ncc3c(c(C)nn3C)c2=O)cc1` [Example 36, (S)-2-(1,3-dimethyl-4-oxo-1,4-dihydro-5H-pyrazolo[3,4-d]pyridazin-5-yl)-N-(1-(p-tolyl)ethyl)acetamide], the EC50 on human GPR139 receptor [1] was 38.9 nM. The Ki at human GPR139 receptor [2] is 251 nM.

Turning to `Cc1nn(C)c2cnn(CC(=O)N[C@@H](C)c3ccc(C(F)(F)F)cc3)c(=O)c12` [Example 37, (S)-2-(1,3-dimethyl-4-oxo-1,4-dihydro-5H-pyrazolo[3,4-d]pyridazin-5-yl)-N-(1-(4-(trifluoromethyl)phenyl)ethyl)acetamide], the EC50 on human GPR139 receptor [1] is 26.3 nM. In addition, the Ki at human GPR139 receptor [2] is 355 nM.

For the compound `Cc1ccc([C@H](C)NC(=O)Cn2ncc3c(c(C4CC4)nn3C)c2=O)cc1` [Example 38, (S)-2-(3-cyclopropyl-1-methyl-4-oxo-1,4-dihydro-5H-pyrazolo[3,4-d]pyridazin-5-yl)-N-(1-(p-tolyl)ethyl)acetamide], the EC50 on human GPR139 receptor [1] was 55 nM. The Ki at human GPR139 receptor [2] was 72.4 nM.

As to `Cc1ccc([C@H](C)NC(=O)Cn2nc(C)c3cnn(C)c3c2=O)cc1` [Example 39, (S)-2-(1,4-dimethyl-7-oxo-1,7-dihydro-6-pyrazolo[3,4-d]pyridazin-6-yl)-N-(1-(p-totyl)ethyl)acetamide], the EC50 on human GPR139 receptor [1] was 36.3 nM. For the same compound, the Ki on human GPR139 receptor [2] was 229 nM.

For `Cc1nn(CC(=O)N[C@@H](C)c2ccc(C(F)(F)F)cc2)c(=O)c2c1cnn2C` [Example 40, (S)-2-(1,4-dimethyl-7-oxo-1,7-dihydro-6H-pyrazolo[3,4-d]pyridazin-6-yl)-N-(1-(4-(trifluoromethyl)phenyl)ethyl)acetamide], the EC50 at human GPR139 receptor [1] was 33.1 nM. The Ki on human GPR139 receptor [2] is 251 nM.

Consider `Cc1ccc([C@H](C)NC(=O)Cn2nc(C)c3cnn(C)c3c2=O)c(F)c1` [Example 41, (S)-2-(1,4-dimethyl-7-oxo-1,7-dihydro-6H-pyrazolo[3,4-d]pyridazin-6-yl)-N-(1-(2-fluoro-4-methylphenyl)ethyl)acetamide], for which the EC50 on human GPR139 receptor [1] was 34.7 nM. In addition, at human GPR139 receptor [2], the Ki was 74.1 nM.

For `Cc1ccc([C@H](C)NC(=O)Cn2nc(C3CC3)c3cnn(-c4ccccc4)c3c2=O)c(F)c1` [Example 42, (S)-2-(4-cyclopropyl-7-oxo-1-phenyl-1,7-dihydro-6H-pyrazolo[3,4-d]pyridazin-6-yl)-N-(1-(2-fluoro-4-methylphenyl)ethyl)acetamide], at human GPR139 receptor [1], the EC50 was no less than 10000 nM. Further, the Ki on human GPR139 receptor [2] is 19.5 nM.

Take `Cc1ccc([C@H](C)NC(=O)Cn2nc(C3CC3)c3cnn(-c4ccccc4)c3c2=O)cc1` [Example 43, (S)-2-(4-cyclopropyl-7-oxo-1-phenyl-1,7-dihydro-6H-pyrazolo[3,4-d]pyridazin-6-yl)-N-(1-(p-tolyl)ethyl)acetamide]: at human GPR139 receptor [1], the EC50 was 708 nM. Also, the Ki on human GPR139 receptor [2] was 89.1 nM.

Regarding `C[C@H](NC(=O)Cn1nc(C2CC2)c2cnn(-c3ccccc3)c2c1=O)c1ccc(C(F)(F)F)cc1` [Example 44, (S)-2-(4-cyclopropyl-7-oxo-1-phenyl-1,7-dihydro-6H-pyrazolo[3,4-d]pyridazin-6-yl)-N-(1-(4-(trifluoromethyl)phenyl)ethyl)acetamide], the EC50 on human GPR139 receptor [1] is 3630 nM. Besides, the Ki on human GPR139 receptor [2] is 105 nM.

Turning to `C[C@H](NC(=O)Cn1nc(C2CC2)c2cnn(-c3ccccc3)c2c1=O)c1ccc(OC(F)(F)F)cc1` [Example 45, (S)-2-(4-cyclopropyl-7-oxo-1-phenyl-1,7-dihydro-6H-pyrazolo[3,4-d]pyridazin-6-yl)-N-(1-(4-(trifluoromethoxy)phenyl)ethyl)acetamide], on human GPR139 receptor [1], the EC50 is no less than 10000 nM. For the same compound, the Ki on human GPR139 receptor [2] was 224 nM.

`Cc1nn(C)c2cnn(CC(=O)N[C@@H](C)c3ccc(OC(F)(F)F)cc3)c(=O)c12` [Example 47, (S)-2-(1,3-dimethyl-4-oxo-1,4-dihydro-5H-pyrazolo[3,4-d]pyridazin-5-yl)-N-(1-(4-(trifluoromethoxy)phenyl)ethyl)acetamide]: the EC50 on human GPR139 receptor [1] was 37.2 nM. For the same compound, at human GPR139 receptor [2], the Ki was 162 nM.

Regarding `COc1ccc([C@H](C)NC(=O)Cn2ncc3c(c(C)nn3C)c2=O)cc1` [Example 48, (S)-2-(1,3-dimethyl-4-oxo-1,4-dihydro-5H-pyrazolo[3,4-d]pyridazin-5-yl)-N-(1-(4-methoxyphenyl)ethyl)acetamide], the EC50 at human GPR139 receptor [1] was 33.1 nM. For the same compound, the Ki at human GPR139 receptor [2] is 1910 nM.

Take `Cc1ccc([C@H](C)NC(=O)Cn2ncc3c(c(C(C)C)nn3C)c2=O)c(F)c1` [Example 49, (S)—N-(1-(2-fluoro-4-methylphenyl)ethyl)-2-(3-isopropyl-1-methyl-4-oxo-1,4-dihydro-5H-pyrazolo[3,4-d]pyridazin-5-yl)acetamide]: the EC50 on human GPR139 receptor [1] is 49 nM. In addition, on human GPR139 receptor [2], the Ki is 22.9 nM.
